Measurements published in US8859625B2, “Methods to prepare penta-1,4-dien-3-ones and substituted cyclohexanones and derivatives with antitumoral and antiparasitic properties, the compounds and their uses” (Universidade Bandeirante de Sao Paulo-Academia, Paulista …, priority 2006, dated 2014).
Values after ≈ are worked out from the molar mass of the structure shown.

Key:
[1] = test system: B16F10 melanoma; experiment: B16F10 melanoma tumors implanted in C57BL/6J mice, intraperitoneal treatment; tumor area and volume; format: in vivo; conditions: diluted in Miglyol 810, intraperitoneal 1.15 μg/kg daily, to Day 14; tumor volume and area
Protocol: After the Day 4 of tumor cells implant (2×10^5 tumoral cells/mL), the animals were splitted in two groups: the test group, treated with HB-1 compound diluted in Miglyol 810® and the control group, which received only the diluent (Miglyol 810®) in the same volume as the test group. The animals were daily treated by intraperitoneal route. Concomitantly, measurements of animal weight and tumor size (two measures—length×width) were performed and tumor aspect registered by photographies.
After the Day 14, the animals were sacrificed by cervical displacement, tumors were removed, and necropsy performed to remove all internal organs and macroscopic lesions for hystopathologic analysis.
Tumoral parameters were obtained by calculation of tumor average area (A) and volume (V), through the following formulas A=πR^2 and V=4/3πR^3, where (R=average tumor radius). […]
After tumoral cell implant, the animals were treated with the HB-2 compound diluted in Miglyol 810® and with (HB2+HB-1) conjugate whereas the control group received the same volume of diluent and by the same administration route (intraperitoneal—100 μl). Daily, the animals received the compounds (100 μl) and the control group received Miglyol 810®, the animals were weighted, and the tumors were measured (length×width) and photographed. […]

[2] = test system: B16F10 melanoma; experiment: Cell cycle phases by flow cytometry of melanoma dorsal tumors treated for 14 days; format: in vivo, C57BL/6J mice; conditions: 15 mg/kg HB-1 diluted in Miglyol 810, intraperitoneal
Protocol: Determination of Cell Cycle Phases Through Flow Cytometry of Melanoma Dorsal Tumors Treated for 14 Days with the HB-1 Compound by the Intraperitoneal Route.
Aliquots of the tumoral cells suspensions (10^6 cells/mL) for the control group that received Miglyol 810® vehicle and of the animals treated with the HB-1 compound for 14 days by the intraperitoneal route were immediately frozen in citrate (2 mM), sucrose (25 mM), and 0.05% dimethyl sulfoxide (DMSO) buffer, kept in liquid nitrogen up to the moment of use. After sample thawing in an ice bath, the cells were incubated with 375 μL of 0.03 g/L trypsin (Sigma) for 10 minutes, at room temperature, and neutralized with 0.5 g/L trypsin inhibitor (Sigma), 0.1 g/L ribonuclease A (Sigma), and 1.2 g/L spermine (Sigma). The samples were analysed by a flow cytometer (Becton-Dickson) and the percentage of cells was evaluated for the different phases of the cell cycle, apoptosis level (Sub-G1), and DNA content in phase S, quiescent cells (G0/G1), and cells in premytosis (G2/M).

[3] = test system: peritoneal normal macrophages; experiment: Cytotoxic effect on peritoneal normal macrophages by the MTT method; format: cell-based, Balb-C mice; conditions: Mus musculus, Macrophage, diluted in Miglyol 810, 24 hours
Protocol: Cytotoxic Effect of HB-1 Compound on Peritoneal Normal Macrophages Assessed by the MTT Method.
Peritoneal macrophages were obtained from normal Balb-C mice through the following procedure: abdominal cavities of the animals were opened under sterile conditions under a laminar flow and exposed. A 2 mL volume of saline solution, containing 5000 U frosty heparin (Liquemine-Roche), was injected into the cavity, followed by a massage and collection of the peritoneal wash irrigation liquid, centrifuged at 2000 rpm for 10 minutes at 4° C.
The suspension was resuspended with RPMI-1640 culture medium supplemented with 10% bovine fetal serum, with the count cell number adjusted to 10^6/mL in a Neubauer chamber. Aliquots of the macrophages were cultivated on plates with 96 flat bottom wells, incubated with and without HB-1 compound diluted in Miglyol 810®. After 24 hours, the plates were submitted to the cytotoxic and antiproliferative effect assessment by the MTT calorimetric method.

[4] = test system: Leishmania (L) amazonensis promastigote forms (isolate LV79); experiment: Promastigote proliferation in RPMI medium, Neubauer chamber count; format: cell-based
Protocol: Compounds are solubilized with dimethyl sulfoxide (DMSO) to produce a stock solution from which samples with different concentrations are obtained, by adding the culture medium in sufficient volume as required to attain the first desired concentration with the other concentrations being obtained by serial dilution of this first one, at ratio 2. The cultures are incubated at 22° C. or 34° C. for promastigotes and amastigotes, respectively.
As a positive control for parasite viability evaluation, only culture medium and parasite, without any other addition, were used. As toxicity control for the solvent present in compound composition, parasite forms were incubated with DMSO diluted in culture medium.
To quantify the promastigotes, Neubauer chambers are used and the cultures are quantified every 24 hours throughout the incubation period scheduled for each experiment. The samples are prepared from an initial dilution of 20 μL of the culture into 180 μL of the saline solution formulated (PBS+2% formaldehyde) to obtain a 1/10 dilution. Whenever necessary, serial dilutions may be performed from the first dilution. For all experiments, parasite forms should be incubated with several HB-1 concentrations, its respective controls with DMSO (we should have in mind that the initial HB-1 stock solution was prepared with DMSO and that its toxicity in relation to the parasite forms have to be assessed) and the normal culture, without any component additioned to the medium. Countings are performed as duplicates, by two different people and the final result is expressed as the arithmetic average from the two countings. The same procedure is employed to quantify the amastigote forms.
Leishmania (L) amazonensis promastigote forms (isolade LV79, 1st passage in culture medium, day 7 of culture, stationary phase) are incubated at a proportion of 10^6 promastigotes/mL of RPMI medium, 3.0 mL final volume, in the presence of different concentrations of HB-1 and of the respective controls in DMSO. The effect of HB-1 compound on the proliferation of Leishmania (L) amazonensis promastigotes-RPMI medium is shown in the next Table and in FIG. 34.

## COc1cc(C=CC(=O)C=Cc2ccc(O)c(OC)c2)ccc1O [HB-1, 1,5-Bis-(4-hydroxy-3-methoxy-phenyl)-penta-1,4-dien-3-one]
[1]
  percentage of inhibitory treatment for B16F10 melanoma: higher than 98%
[2]
  tumoral cell population in the G0/G1 phase of the cell cycle: significantly reduces
[3]
  IC50: 16.9 µg/mL (≈ 51.8 µM)
[4]; HB-1 3.12 μg/mL, 24 hours
  N^o. of promastigotes/mL (×10^6): 1.6 ×10^6 promastigotes/mL
[4]; HB-1 3.12 μg/mL, 48 hours
  N^o. of promastigotes/mL (×10^6): 2.1 ×10^6 promastigotes/mL
[4]; HB-1 3.12 μg/mL, 72 hours
  N^o. of promastigotes/mL (×10^6): 2.1 ×10^6 promastigotes/mL
[4]; HB-1 3.12 μg/mL, 144 hours
  N^o. of promastigotes/mL (×10^6): 2.4 ×10^6 promastigotes/mL
[4]; HB-1 6.25 μg/mL, 24 hours
  N^o. of promastigotes/mL (×10^6): 0.8 ×10^6 promastigotes/mL
[4]; HB-1 6.25 μg/mL, 48 hours
  N^o. of promastigotes/mL (×10^6): 1.0 ×10^6 promastigotes/mL
[4]; HB-1 6.25 μg/mL, 72 hours
  N^o. of promastigotes/mL (×10^6): 0.7 ×10^6 promastigotes/mL
[4]; HB-1 6.25 μg/mL, 144 hours
  N^o. of promastigotes/mL (×10^6): 0.3 ×10^6 promastigotes/mL
[4]; HB-1 12.5 μg/mL, 24 hours
  N^o. of promastigotes/mL (×10^6): 0.7 ×10^6 promastigotes/mL
[4]; HB-1 12.5 μg/mL, 48 hours
  N^o. of promastigotes/mL (×10^6): 0 ×10^6 promastigotes/mL
[4]; HB-1 12.5 μg/mL, 72 hours
  N^o. of promastigotes/mL (×10^6): 0 ×10^6 promastigotes/mL
[4]; HB-1 12.5 μg/mL, 144 hours
  N^o. of promastigotes/mL (×10^6): 0 ×10^6 promastigotes/mL
[4]; HB-1 25 μg/mL, 24 hours
  N^o. of promastigotes/mL (×10^6): 0.5 ×10^6 promastigotes/mL
[4]; HB-1 25 μg/mL, 48 hours
  N^o. of promastigotes/mL (×10^6): 0 ×10^6 promastigotes/mL
[4]; HB-1 25 μg/mL, 72 hours
  N^o. of promastigotes/mL (×10^6): 0 ×10^6 promastigotes/mL
[4]; HB-1 25 μg/mL, 144 hours
  N^o. of promastigotes/mL (×10^6): 0 ×10^6 promastigotes/mL
[4]; HB-1 50 μg/mL, 24 hours
  N^o. of promastigotes/mL (×10^6): 0.1 ×10^6 promastigotes/mL
[4]; HB-1 50 μg/mL, 48 hours
  N^o. of promastigotes/mL (×10^6): 0 ×10^6 promastigotes/mL
[4]; HB-1 50 μg/mL, 72 hours
  N^o. of promastigotes/mL (×10^6): 0 ×10^6 promastigotes/mL
[4]; HB-1 50 μg/mL, 144 hours
  N^o. of promastigotes/mL (×10^6): 0 ×10^6 promastigotes/mL
[4]; HB-1 100 μg/mL to 12.5 μg/mL, 48 hours
  inhibitory effect (=mortality): 100%
[4]; HB-1 100 μg/mL, 24 hours
  N^o. of promastigotes/mL (×10^6): 0 ×10^6 promastigotes/mL
[4]; HB-1 100 μg/mL, 48 hours
  N^o. of promastigotes/mL (×10^6): 0 ×10^6 promastigotes/mL
[4]; HB-1 100 μg/mL, 72 hours
  N^o. of promastigotes/mL (×10^6): 0 ×10^6 promastigotes/mL
[4]; HB-1 100 μg/mL, 144 hours
  N^o. of promastigotes/mL (×10^6): 0 ×10^6 promastigotes/mL
